Measured values reported in patent US8609718B2, “Pharmaceutical composition used in treatment of hyperproliferative skin conditions and malignant melanomas comprising pachastrissamine as active ingredient” (Catholic University Industry Academy Cooperation Foundation, priority 2009, dated 2013).

Key:
FoxO3a = assay: Western blotting of FoxO3a protein expression in HaCaT; type: cell-based, human; details: for level of protein expression of FoxO3a, single material: treated as in Example 3-2, compared to negative control, FIG. 4E
Experimental: A HaCaT cell line was cultured in the same manner as described in Example 1. […] Then, western blotting was carried out by using FoxO3a antibody as a primary antibody.
Then, western blotting was carried out by using FoxO3a antibody as a primary antibody so as to carry out comparative analysis on the level of protein expression.

ERK = assay: Western blotting of ERK activity (pERK) in HaCaT; type: cell-based, human; details: pachastrissamine 10 μg/ml, U0126 20 nM, 30 minutes, FIG. 3C
Experimental: A HaCaT cell line was cultured in the same manner as described in Example 1. […] The last group was a negative control group (−) and was added with nothing.

FoxO3a / beta-catenin = details: U0126, 30 minutes, FIG. 5C
Experimental: In a HaCaT cell line, pachastrissamine's effect on FoxO3a protein which can be degraded over-expression of beta-catenin was researched. In the same manner as described in Example 1, the HaCaT cell line was cultured. The cultured cells were transfected with beta-catenin so as to induce over-expression of beta-catenin. The cultured cells were plated onto a 6-well plate at a concentration of 3×10^5 cells/well and cultured for 24 hours. After the culturing, after about 12 hours of serum starvation, cells with over-expression of beta-catenin and other cells with transfection of vector were treated with U0126 (ERK inhibitor), and reacted for 30 minutes.

HaCaT cell = assay: Phase-contrast microscope morphology analysis of surviving cells; type: cell-based, human; details: lithium chloride only, 300 nM; 24 hours; FIG. 2D
Experimental: HaCaT, B16F10 and A375 cell lines were cultured in the same manner as described in Example 1. The cultured HaCaT cell line was plated onto a 60 mm plate at a concentration of 5×10^4 cells/well, and cultured in a CO2 incubator (37° C., 5%) for 24 hours. The cultured respective cells were divided into 4 groups. One group was added with only pachastrissamine (PA) at a concentration of 10 μg/ml; another group was added with lithium chloride (apoptosis inhibiting material) (at a final concentration of 300 nM) as well as pachastrissamine at a concentration of 10 μg/ml (PA+Li); and a third group was added with only lithium chloride (Li). The last group was a negative control group (Con) and was added with nothing. These groups were cultured in a CO2 incubator (37° C., 5%) for 24 hours, and then the number of cells were measured in the same manner as described in Example 2-2.
The four groups of HaCaT cell samples were washed with PBS, and then surviving cells were subjected to morphology analysis through a phase-contrast microscope (see FIG. 2f).

GSK3-beta / beta-catenin = assay: Western blotting of pGSK3-beta, GSK3-beta, pCatenin and Catenin in HaCaT; type: cell-based, human; details: pachastrissamine 10 μg/ml, LiCl 300 nM, 30 minutes, FIG. 5A
Experimental: The pachastrissamine's effect on beta-catenin protein expression was researched. In the same manner as described in Example 1, a HaCaT cell line was cultured.

HaCaT cell line = assay: MTT cell viability analysis (cytotoxicity), HaCaT; type: cell-based, human; details: 0, 0.9, 1.8, 3.7, 7.5, 10 μg/ml, 24 hours, FIG. 1
Experimental: (§1) Pachastrissamine's cytotoxicity on a HaCaT cell line and a malignant melanoma cell line was researched through MTT cell viability analysis.
(§2) First, each of a HaCaT cell line (German Cancer Research, obtained from prof. N. Fuseni, Germany), and two kinds of malignant melanoma cell lines, B16F10 (B16) and A375 were inoculated into a DMEM (Dulbecco's Modified Eagle's Medium) culture medium added with 10% FBS (Thermo Fisher Scientific Inc.), 100 unit/ml penicillin, and 100 μg/ml streptomycin, and then cultured in a CO2 incubator (Form a Scientific, Inc.) (37° C., 5%).
(§3) The cultured HaCaT, B16F10, and A375 cells were plated onto a 96-well plate at a concentration of 5×10^4 cells/well, and cultured in a CO2 incubator (37° C., 5%) for 24 hours. The cells in respective wells were treated with pachastrissamine and phytosphingosine at various concentrations of 0, 0.9, 1.8, 3.7, 7.5, 10 μg/ml, and cultured in a CO2 incubator (37° C., 5%) for 24 hours. After the culturing, in a state where the culture medium existed, each well was added with 5 mg/ml MTT reagent at a concentration of 20 μl/[…], and cultured in an incubator for 2 hours. After 2 hours, the culture medium was removed, and each well was added with 150 μl of DMSO (dimethyl sulfoxide). Then, a spectrophotometer was used to measure the absorbance at 540 nm, thereby analyzing the cell viability. Herein, the cell viability was represented as a relative value with respect to 100% of cell viability in a control group not treated with pachastrissamine and phytosphingosine.

[1] = tested on: malignant melanoma cell line B16F10; assay: MTT cell viability analysis (cytotoxicity), B16F10; type: cell-based; details: 0, 0.9, 1.8, 3.7, 7.5, 10 μg/ml, 24 hours, FIG. 1
Experimental: as §1, §2, §3

[2] = tested on: malignant melanoma cell line A375; assay: MTT cell viability analysis (cytotoxicity), A375; type: cell-based; details: 0, 0.9, 1.8, 3.7, 7.5, 10 μg/ml, 24 hours, FIG. 1
Experimental: as §1, §2, §3

AKT = assay: Western blotting of AKT phosphorylation; type: cell-based; details: HaCaT, B16F10, A375; 10 μg/ml pachastrissamine, 5 μg/ml phytosphingosine; 30 minutes; FIGS. 3A, 3B
Experimental: HaCaT, B16F10 and A375 cell lines were cultured in the same manner as described in Example 1. […] 30 minutes later, and 60 minutes later, each of the cell lines was resuspended in RIPA buffer [12 mM EDTA, 137 mM NaCl, 20 mM Tris-HCl (pH 8.0), 1 mM Na3VO4 (Sigma-Aldrich, USA) 10 mM NaF (Sigma), 1 mM PMSF (Sigma), 1% Triton X-100, 10% glycerol, protease inhibiting cocktail (Roche, Germany)], and then put on ice for 30 minutes so that the cells can be completely lysed. The lysate was centrifuged at 14000 rpm for 30 minutes, and the supernatant was collected. A BCA protein analysis kit (Pierce, Rockford, Ill.) was used to determine the concentration of each sample, and the sample was subjected to electrophoresis (SDS-PAGE). Western blotting was carried out on the protein isolated by the electrophoresis. After electrophoresis of the sample, the protein was transferred to a polyvinylidene fluoride membrane (Pall Corporation). Then, after blocking the membrane at room temperature for one hour using 5% BSA solution (Amresco, USA), it was treated with primary antibodies and reaction was carried out for 12 hours at 4° C. The primary antibodies were AKT antibody and Actin antibody (Cell Signaling Technology, Beverly, Mass.), which are antibodies associated in cell proliferation-related signaling. After reaction with primary antibodies, it was washed for about 30 minutes and further reacted for 1 hour at room temperature by treating with HRP-conjugated secondary antibodies. Then, after washing sufficiently for over 30 minutes, protein was identified using an ECL detection kit (intron Biotechnology).

p-FoxO3a (Ser 253) = assay: Western blotting of p-FoxO3a (Ser 253); type: cell-based; details: HaCaT, A375, B16F10; 10 μg/ml; 30 minutes; FIGS. 4B, 4C
Experimental: In the same manner as described in Example 4-1, a HaCaT cell line and malignant melanoma cell lines (A375 and B16F10) were treated with pachastrissamine and phytosphingosine at a concentration of 10 μg/ml for 30 minutes and 60 minutes, respectively. Then, western blotting was carried out using p-FoxO3a (Ser 253) antibody.

## COc1cccc(-c2cc(=O)c3ccccc3o2)c1N [PD98059, reference compound]
FoxO3a
  level of protein expression of FoxO3a, single material: significantly increased

## N#CC(=C(/N)Sc1ccccc1N)/C(C#N)=C(\N)Sc1ccccc1N [U0126, reference compound]
ERK
  ERK activation (phosphorylation of ERK): almost completely inhibited the phosphorylation of ERK
FoxO3a
  level of protein expression of FoxO3a, single material: significantly increased
FoxO3a / beta-catenin; HaCaT transfected with beta-catenin
  expression level of FoxO3a protein reduced by over-expression of beta-catenin: restored
FoxO3a / beta-catenin; HaCaT with or without over-expression of beta-catenin
  protein expression level of beta-catenin: no effect

## [Cl-].[Li+] [lithium chloride, reference compound]
HaCaT cell
  cell division extent: increased
GSK3-beta / beta-catenin
  phosphorylation of GSK3-beta: GSK3-beta was phosphorylated
  phosphorylation of beta-catenin: inhibited the phosphorylation of beta-catenin

## CCCCCCCCCCCCCC[C@@H](O)[C@@H](O)[C@@H](N)CO [phytosphingosine, reference compound]
HaCaT cell line
  cell viability (number of surviving cells) with increasing concentration: the number of surviving cells was reduced
[1]
  cell viability (number of surviving cells) with increasing concentration: the number of surviving cells was reduced
[2]
  cell viability (number of surviving cells) with increasing concentration: the number of surviving cells was reduced
AKT
  phosphorylation of AKT after 30 minutes: reduction of phosphorylation of AKT
FoxO3a; 5 and 10 μg/ml, 24 hours, FIG. 4A
  protein expression level of FoxO3a compared to control group: increased
p-FoxO3a (Ser 253)
  amount of expressed p-FoxO3a after 30 minutes: reduced
